In US12453725B2, “Treatment of inflammatory disease” (Celleron Therapeutics Limited, priority 2019, dated 2025):

Columns and labels:
H3 acetylation = assay: H3 acetylation, colon26 cells; type: cell-based, mouse; conditions: colon26, dose-dependent
Protocol: Cell pellets were lysed in TNN buffer, for 30 minutes on ice and centrifuged for another 30 minutes at maximum speed at 4° C. Protein concentration was assessed by Bradford assay (Quick Start™ Bradford 1× Dye Reagent, Bio-Rad Laboratories, USA). After gel electrophoresis, proteins were transferred onto the PVDF membrane by means of Trans-Blot® Turbo™ Transfer System (Bio-Rad Laboratories, USA) and blocked by 1 h incubation in 5% skim milk (Merck Group, Germany) in PBST at RT. To confirm acetylation induced by CXD101, membranes were incubated with anti-H3 (ab1791, abcam) antibody, anti-H3Ack9 (ab10812, abcam) in case of CT26 cells, and for SW620 with H3Ack14 antibody (#7627, Cell Signaling) overnight, at 4° C. Next, membranes were washed and treated with secondary antibody for 1 h at RT. Chemiluminescent signals were detected by LICOR C-Digit (LI-COR Biosciences, USA), and the data quantified using ImageJ software (National Institutes of Health, USA).

[1] = cited from earlier work
[2] = tested on: SW620 human colon adenocarcinoma cells; assay: MTT assay, SW620 cells; type: cell-based
Protocol: (§1) Three human colorectal adenocarcinoma cell lines: SW620 (ATCC® CCL-227™), HCT-15 (ATCC® CCL-225™), LoVo (ATCC® CCL-229™), and one mouse colon carcinoma cell line: CT26 (ATCC® CRL-2638™) were obtained from ATCC. Human cell lines were cultured in DMEM (Lonza Group, Switzerland), while CT26 in RPMI (Biowest, France). The media were supplemented with 10% FBS and 1% penicillin-streptomycin (Lonza Group, Switzerland). Cells were cultured under standard conditions.
(§2) In order to assess the cytotoxicity of CXD101, cells were seeded onto 96-well plates overnight and the next day were dosed with CXD101 and incubated for 72 h or 120 h. Next, 100 μl of Thiazolyl Blue Tetrazolium Bromide (MTT, Sigma-Aldrich, USA) was added into a well (final concentration […]) and incubated for 2 h at 37° C. After that medium was discarded and formazan crystals were dissolved in 100 μl DMSO (VWR International, USA) by shaking for 15 minutes. Absorbance was read by Omega FLUOstar plate reader (BMG Labtech Ltd, Germany) at the 584 nm wavelength. Data were analysed and IC50 doses calculated in GraphPad Prism (GraphPad Software, USA).

colon26 cells = assay: RNAseq, colon26 cells in vitro; type: cell-based, mouse
Source text: The RNAseq data was aligned to the reference M. musculus genome (mm10) with STAR aligner and analysed for differential expression. […] We further evaluated transcripts identified in the colon26 RNAseq at the single gene level, focusing on murine genes which are homologues of the immune-related genes identified in human SW620 cells, which included genes in the murine MHC H2 complex. A number of H2 genes including class I and class II genes were induced including H2-D1, DMA, DMB1 and EB1 (FIG. 6).
SW620 cells were seeded into 6-well plates and left to adhere overnight. Cells were treated with 1 μM, 10 μM of CXD101 for 48 h. CT26 cells were seeded onto 100 mm plates and treated with 2.7 μM and 10 μM CXD101 for 72 h. After treatment cells were harvested and total RNA extracted by means of Promega ReliaPrep™ RNA Cell Miniprep System (Promega, USA). RNA was dissolved in RNAse free water and stored in −80° C. for future analysis. RNA concentration was measured by NanoDrop 2000 (Thermo Fisher Scientific, USA). Samples were qualified for library preparation if […]. Library preparation with poly (A) enrichment was performed by BGI.

[3] = tested on: mouse colorectal colon26 cells; assay: Proliferation of colon26 cells; type: cell-based; conditions: dose- and time-dependent
Protocol: as §1, §2

A20 tumours = assay: Syngeneic A20 B cell lymphoma model; type: in vivo, mouse; conditions: CXD101 50 mg/kg
Source text: In order to rule out that the effects of the combined therapy were specific to the colon26 and MC38 colorectal cancer model, we widened the study to the syngeneic A20 B cell lymphoma model (FIG. 10). A20 tumours are reported to express high levels of PD-L1 and are responsive to immunomodulatory antibodies (32).

colon26 tumours = assay: Syngeneic colon26 colon carcinoma model; type: in vivo
Protocol: To assess gene expression in tumours that were growing in vivo, we evaluated the effect of CXD101 in the syngeneic colon26 colon carcinoma model in tumours grown subcutaneously in Balb/c mice, with CXD101 given orally for two 5-day consecutive periods and performed RNAseq on RNA purified from the tumours. Formalin-fixed paraffin-embedded samples were also prepared to assess by immunohistochemistry (IHC) the tumour micro-environment.
(§3) Syngeneic colorectal tumour xenograft Colon 26 model was induced in female BALB/c mice and MC38 model in C57BL/6 mice by subcutaneous injection of cell suspension into the flank following the anaesthetization by inhalation of isoflurane. Upon solid tumour formation Colon 26 animals were divided into six experimental groups treated respectively with: vehicle control (control), CXD101, anti-PD-1 mAb (BioXCell, USA), anti-CTLA4 mAb (BioXCell, USA), combination of CXD101 with anti-PD-1 antibody and combination of CXD101 with anti-CTLA4 antibody. MC38 animals were divided into four groups, without CTLA-4-based treatment. During the course of experiment animals were monitored twice daily and weighed three times a week. Mice in bad overall condition and/or tumour volume exceeding 1000 mm3 were euthanized. Tumour volume was calculated by two-dimensional measurement according to the formula: Tumour volume=(a×b^2)×0.5 in which a—represents the largest and, b—the perpendicular tumour diameter. The study was terminated on 36th day (Colon 26) or 48th day (MC38). All Colon 26 animal handling has been executed by Charles River Laboratories (Germany) personnel with compliance to all local and international laws and regulations. Experiments involving MC38 tumour model have been executed by Crown Bioscience San Diego (USA). CXD101 Clinical Trial in Combination with Nivolumab (CTL-101-023)

MC38 tumours = assay: Syngeneic MC38 tumour model; design: species or system C57BL/6 mice; conditions: mouse, in vivo
Source text: as §3

[4] = colon26 in vitro, log 2 FC >1, FDR 1%
[5] = out of 1142 differentially expressed genes

Cc1nn(C)cc1CN1CCC(c2ccc(C(=O)Nc3ccccc3N)cc2)CC1 [CXD101, N-(2-aminophenyl)-4-(1-[(1,3-dimethyl-1H-pyrazol-4-yl)methyl]piperidin-4-yl)benzamide]
H3 acetylation in cells (H3 acetylation): increases the H3 acetylation
patients with tumour reduction ([1]; T-cell lymphoma, follicular lymphoma, Hodgkin lymphoma): 63%
MTD ([1]; for 5 days in a 3-weekly cycle): 20 mg B.D.
proliferation of human colon cancer cells [2]: blocks proliferation
number of DEGs in vitro (colon26 cells; colon26 cells): 2502
genes down-regulated (colon26 cells; [4]): 611
genes up-regulated (colon26 cells; [4]): 1891
immune-related DEGs, Immunome database (colon26 cells; [5]): 15%
immune-related DEGs, Import database (colon26 cells; [5]): 34%
immune-related DEGs, immunogenicity database (colon26 cells; [5]): 36%
proliferation of colon26 cells [3]: inhibits proliferation
A20 tumour progression (A20 tumours): modest effect
growth of colon26 tumours (colon26 tumours; mono-therapy vs combined treatment study): inhibitory effect
body weight (colon26 tumours; mono-therapy, 15 and 50 mg/kg): minimal effect
tumour growth (colon26 tumours; mono-therapy, oral, two 5-day periods, 15 and 50 mg/kg, dose-dependent): significant inhibition of tumour growth
MC38 tumour response (MC38 tumours): marginal response
